# Experimental data taken from patent US11654167B2, “Pharmaceutical composition based on bacteriophages against F. nucleatum; use in the treatment of diseases associated with this pathogen” (priority 2016, dated 2023).
# Assays:
# F. nucleatum [1] = test: in vivo bacteria count of F. nucleatum in co-infected rats; set-up: species or system Sprague Dawley rat; settings: chlorhexidine 0.12% local cleaning and/or amoxicillin (50 mg/Kg) in water
# Protocol: An evaluation is performed to determine the effect of these treatments on the microbiological count associated with periodontal destruction in Sprague Dawley rat models inoculated with P. gingivalis and F. nucleatum, the main pathogens of the etiology of periodontal disease.
# (§1) Methodology consists in co-infecting rats with P. gingivalis and F. nucleatum, and treating or not treating them with the mixture of bacteriophages Fnpϕ02-14, Fnpϕ11 and Fnnϕ107 at different MOI. The procedure for each stage is described below:
# (§2) Finally, on week 10, the sacrifice of the rats of the group is performed. The initial treatment of local cleaning with CHX 0.12% and the local administration of the bacteria mixture is performed under anesthesia for 5-10 sec. with isoflurane gas. The sacrifice of the rats was performed with an anesthesia overdose of Ketamine:Xylazine (2:1).
# (§3) The mixture of the three lytic bacteriophages Fnpϕ02-14, Fnpϕ11 and Fnnϕ107, specific for F. nucleatum, is performed, with a concentration of 10^8, 10^10 and 10^8 UFP/mL, respectively. Afterwards, it was kept at 4° C. until it was used.
# Each research group is composed by 3 subjects per cage, and there ware a number of 6 subjects per group. […]
# F. nucleatum [2] = test: detection of F. nucleatum by PCR in co-infected rats; type: in vivo, Sprague Dawley rat; settings: chlorhexidine 0.12% and/or amoxicillin
# Protocol: as §1, §2, §3
# Each research group is composed by 3 subjects per cage, and there ware a number of 6 subjects per group. The research groups are the following: Group 1 (Continuous treatment phage), in which the administration of the mixture of bacteriophages in a multiplicity of infection (MOI) of 0.01 (1 bacteria for 100 phages) is performed, in the same inoculation times as the bacteria mixture (week 2, 4, 6 and 8), for 4 days every time. […]
# [3] = test system: gingival tissue associated with the first molar; test: histology of gingival tissue (hematoxylin-eosin), inflammatory response; type: in vivo, Sprague Dawley rat; settings: chlorhexidine 0.12% and/or amoxicillin (50 mg/Kg)
# Protocol: In order to perform the analysis of gingival tissue associated with the first molar once the piece is worn out, this one is fixed in a solution of paraformaldehyde at 10% for 24 hours. Afterwards, the bone is decalcified in an […] solution for 24 hours. The decalcified tissue was soaked in paraffin blocks, in order to be cut afterwards by a microtome in transversal sections for 4μ, in order to be finally stained with the hematoxylin-eosin staining. […] The presence or absence of inflammation in the tissue was examined by using the following parameters: Hematopoietic distribution, presence of vasodilation, thickness of keratinized epithelial tissue, presence of immune cells (lymphocytes, monocytes, polymorph nuclear, etc.), prisoners of inflammatory focus and cell infiltration in keratinized epithelium. In this way, the manifestations of acute or chronic inflammatory response and the normal, incipient, or established inflammatory response were determined.
# RANKL and OPG = test: bone reabsorption indicators RANKL and OPG in plasma by indirect ELISA; type: in vivo, Sprague Dawley rat; settings: chlorhexidine 0.12% and/or amoxicillin
# Protocol: The determination of bone reabsorption of the different subjects of treatment is performed based on measuring the molecules associated with this type of physiological response. The levels of RANKL and OPG molecules are measured by Enzyme-Linked ImmunoSorbent Assay (ELISA), specifically the ELISA indirect type, performed from a plasma sample. The blood sample was extracted as follows: the rat is deeply anesthetized with ketamine:xylazine, via the intraperitoneal route. The rat is treated with heparin 2 minutes before surgery, also via the intraperitoneal route with 200-300 μL. […]
# Prior to the use of plasma, a quantification of proteins (mg/mL) of each sample is performed by the concentrated Bradford protocol (5×). […] Finally, the absorbance is measured at 595 nm in a plate reader (SQ-2800 model spectrophotometer, United Products & Instruments Inc., Dayton, USA). […]
# It is mixed and protected from the light. […] Afterwards, in order to stop the reaction, 100 μL of NaOH 3N, in order to finally read the absorbency of each well at 405 nm in an ELISA reader. • In order to obtain the values of concentration for each sample, the Lambert-Beer formula was used: Abs405=ε*d*[mM]; • where ε: extinction coefficient 18.5*10^3 M^−1 cm^−1 and d: length of the well 1 cm. […]
# [4] = test system: alveolar bone of the first molar; test: bone loss of alveolar bone of the first molar; type: in vivo, Sprague Dawley rat; settings: chlorhexidine 0.12% and/or amoxicillin
# Protocol: In order to determine bone loss, we measured directly the alveolar bone of the first molar in the hemi sectioned right jaw of each subject. In order to obtain the alveolar bone, the jaw extraction is performed and autoclaved for 20 min. The first cleaning is performed, removing the associated tissue. Afterwards, the bones are soaked in hydrogen peroxide at 3% for all night at room temperature. After this time, the pieces were washed with distilled water in order to eliminate any remainder of adhered tissue; the bone is brushed with toothpaste and finally washed with distilled water. Clean jaws are stained with methylene blue at 1% for 15 seconds, and then washed with distilled water to remove the excess of stain. The pieces are left to dry by air, and it is in this moment when the limit cement-enamel appears in the associated dental piece. The measure is obtained by measuring from the exposed base of the root of the tooth to the cement-enamel limit.
Structure (SMILES),F. nucleatum count after versus before treatment (F. nucleatum [1]),"detection of F. nucleatum by PCR, post-treatment versus pre-treatment samples (F. nucleatum [2])",inflammatory response in histological sections [3],ratio RANKL/OPG versus control group without treatment (RANKL and OPG),bone loss of alveolar bone versus control group [4]
CC1(C)S[C@@H]2[C@H](NC(=O)[C@H](N)c3ccc(O)cc3)C(=O)N2[C@H]1C(=O)O [amoxicillin],only the count in the post mortem sample decreases,lower count of positive detections,presence of an acute incipient inflammatory response,present significant differences,do not avoid bone loss
[H]/N=C(\N/C(=N/[H])NCCCCCCNC(=N)NC(=N)Nc1ccc(Cl)cc1)Nc1ccc(Cl)cc1 [chlorhexidine],tendency to reducing bacteria count,lower count of positive detections,presence of an active acute inflammatory response,do not present significant differences,do not avoid bone loss
